Measured values from paper PMC12686243, “Synthesis and preclinical evaluation of FAP-targeting radiotracers for PET and optical imaging” (EJNMMI Radiopharmacy and Chemistry, 2025).

Key:
[1] = target: T1, hFAPα, recombinant protein (Homo sapiens, UniProt Q12884); assay: fluorometric enzyme inhibition assay for FAP; format: biochemical; conditions: Morrison equation for tight binding inhibitors; substrate Ala-Pro-AMC; mean ± SD
T1 construct: purchased
T1 sequence (Q12884 1-760): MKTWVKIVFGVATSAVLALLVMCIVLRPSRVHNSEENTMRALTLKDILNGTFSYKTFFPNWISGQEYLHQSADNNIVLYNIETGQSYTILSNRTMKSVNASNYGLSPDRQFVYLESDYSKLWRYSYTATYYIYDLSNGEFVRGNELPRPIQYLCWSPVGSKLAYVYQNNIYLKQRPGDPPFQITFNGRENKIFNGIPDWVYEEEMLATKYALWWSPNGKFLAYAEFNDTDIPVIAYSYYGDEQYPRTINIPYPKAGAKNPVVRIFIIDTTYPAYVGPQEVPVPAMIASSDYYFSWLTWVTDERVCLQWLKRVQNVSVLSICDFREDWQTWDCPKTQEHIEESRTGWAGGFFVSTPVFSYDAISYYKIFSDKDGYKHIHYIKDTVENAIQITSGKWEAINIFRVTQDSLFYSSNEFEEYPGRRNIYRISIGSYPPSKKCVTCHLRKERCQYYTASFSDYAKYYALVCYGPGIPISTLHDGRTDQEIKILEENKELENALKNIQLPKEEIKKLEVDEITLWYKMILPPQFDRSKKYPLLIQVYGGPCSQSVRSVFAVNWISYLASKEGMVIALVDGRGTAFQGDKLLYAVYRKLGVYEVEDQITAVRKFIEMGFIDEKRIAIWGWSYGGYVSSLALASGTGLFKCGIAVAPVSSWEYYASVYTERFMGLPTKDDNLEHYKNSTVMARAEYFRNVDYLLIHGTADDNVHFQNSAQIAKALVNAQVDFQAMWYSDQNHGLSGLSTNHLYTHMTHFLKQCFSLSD
Description: Affinity towards FAP was tested using a commercially available fluorometric assay. At the day of the experiment, all tested compounds were diluted in assay buffer (DPP assay buffer, BPS Bioscience, San Diego, CA, USA,) in a 1:1 dilution series, resulting in eleven concentrations, ranging from 2000 nM to 1.950 nM, equal to 200 nM to 0.195 nM per well. The substrate Ala-Pro-AMC (BPS Bioscience, concentration per well: 5 μM, Km = 244 μM (Edosada et al. [2006])) was pipetted along with the inhibitor into a 96-well plate. Subsequently, the enzyme (hFAPα, recombinant protein) was dissolved in assay buffer and added to the wells. The final concentration of DMSO per well was 0.2%. The 96-well plate was immediately loaded into a multimode plate reader (Biotek Cytation 5, Agilent, Santa Clara, CA, USA). The fluorescence intensity for each well was measured over a time course of 30 min with measurement intervals of 15 s, an excitation wavelength of 360 ± 20 nm and an emission wavelength of 450 ± 20 nm. Data (relative fluorescence units, RFU) over the total measurement time was analyzed by linear regression. The slope of the resulting graphs was analyzed over the inhibitor concentration. The enzyme inhibition constant Ki was calculated using the Morrison equation for tight binding inhibitors (Williams and Morrison [1979]). […]

[2] = target: T2, human recombinant dipeptidylpeptidase IV (Homo sapiens, UniProt P27487); assay: fluorometric enzyme inhibition assay for DPPIV; format: biochemical
T2 construct: purchased Cayman Chemical
Description: The affinity towards DPPIV was determined using a commercially available inhibitor screening assay kit (Cayman Chemical, USA). The assay was performed according to the manufacturer’s instructions, and the data was analyzed as described above.

WT-HT1080 cells = assay: fluorescence microscopy of cellular binding and uptake; format: cell-based, human; conditions: 1 µM, 37 °C, up to 4 h
Description: WT/hFAP-HT1080 cells were seeded in an 18-chamber slide with 10,000 cells/well and cultured overnight. The medium was discarded and replaced by medium containing 1 µM of NODAGA-FAP647. The cells were then further incubated at 37 °C and 5% CO2. The binding of the ligand was stopped at the indicated time points by discarding the media and washing the cells twice with ice-cold PBS. The cells were then quickly fixed with 4% PFA/2.5% saccharose in PBS at 20 °C for 20 min. Following the fixation, cells were incubated with a 1:200 dilution of WGA-CF488A (Biotium #29022–1) in PBS to stain the cell membranes. Finally, the cell nuclei were stained with Hoechst33258 (Sigma #94403) diluted 5 µg/ml in PBS for 30 min at 20 °C. Cells were visualized with the Fluoview 1000 confocal laser scanning microscope (Olympus) using a 100 × oil immersion objective. Three representative images were captured for each well.

[3] = tested on: hFAP-HT1080 and WT-HT1080 xenografts; assay: in vivo fluorescence imaging of xenograft-bearing mice; set-up: species or system nude mice
Excerpt: Female athymic NMRI-nude mice (Rj:NMRI-Foxn1nu, Janvier Labs, France or Charles River, Germany) between 8 and 20 weeks of age were used. Subsequently, the prepared cells (1.0–2.0 × 10^6 hFAP/WT-HT1080 per animal) were subcutaneously injected into the right and left thigh, respectively. Xenograft tissue for real-time binding experiments was derived from animals injected with both target-positive and negative cells, however only showing growth of one tumor entity. When approaching endpoints, mice were anesthetized and euthanized. The tumor was quickly removed, frozen in − 45 °C 2-methylbutane and stored in sealed tubes at − 80 °C.
Optical imaging was performed using a multimodal IVIS-CT (Perkin Elmer, USA). Compounds were injected [0.09 mg/kg (n = 1)/0.33 mg/kg (n = 3) for NODAGA-FAP647; 0.17 mg/kg (n = 3) for NODAGA-FAP800, diluted in 150 µL of sterile 0.9% NaCl solution] into the lateral tail vein, either directly or via catheter. Fluorescence imaging started ~ 2 min post injection for 2–3 h, with 1 min, 3–5 min and 10 min intervals, along with a white-light image. Additional scans were performed after 24 h and, if applicable, later. The fluorescence of the respective fluorophore was captured (NODAGA-FAP647: λEx/Em = 640/680 nm, NODAGA-FAP800: λEx/Em = 745/800 nm). Emitted fluorescence intensity was analyzed (Perkin Elmer, Living Image 4.7.4) in raw data images.

T2 sequence (P27487 whole entry): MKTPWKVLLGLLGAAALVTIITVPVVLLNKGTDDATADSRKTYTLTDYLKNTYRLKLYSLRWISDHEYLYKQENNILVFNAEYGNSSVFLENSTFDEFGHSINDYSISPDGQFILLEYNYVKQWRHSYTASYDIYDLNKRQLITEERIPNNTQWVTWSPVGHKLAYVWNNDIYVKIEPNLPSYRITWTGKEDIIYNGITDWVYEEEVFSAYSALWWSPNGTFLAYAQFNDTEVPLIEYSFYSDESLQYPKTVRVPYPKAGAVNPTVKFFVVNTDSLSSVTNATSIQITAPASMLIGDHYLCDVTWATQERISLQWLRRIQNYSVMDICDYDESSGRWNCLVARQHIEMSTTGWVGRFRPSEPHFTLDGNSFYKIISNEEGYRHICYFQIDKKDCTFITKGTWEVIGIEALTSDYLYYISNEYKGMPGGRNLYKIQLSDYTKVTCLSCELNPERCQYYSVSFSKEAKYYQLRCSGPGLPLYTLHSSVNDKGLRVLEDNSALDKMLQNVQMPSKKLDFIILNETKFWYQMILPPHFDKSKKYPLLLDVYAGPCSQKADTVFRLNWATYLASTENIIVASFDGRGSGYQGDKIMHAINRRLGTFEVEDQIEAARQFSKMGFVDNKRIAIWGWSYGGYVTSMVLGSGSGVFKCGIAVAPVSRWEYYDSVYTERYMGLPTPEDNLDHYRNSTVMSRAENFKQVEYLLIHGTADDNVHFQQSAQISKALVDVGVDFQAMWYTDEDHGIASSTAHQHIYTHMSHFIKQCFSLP

Ki [1]: 0.237 ± 0.064 nM | IC50 [2]: > 10000 nM | ratio hFAP-HT1080/muscle fluorescence ([3]; 120 min post injection): 3.5 | ratio hFAP/WT-HT1080 tumor fluorescence ([3]; 120 min post injection): 2.5 | fluorescence in hFAP-HT1080 tumor higher than in WT-HT1080 tumor or muscle ([3]; 24 h post injection): roughly 60% | reduction of fluorescence signal in hFAP-HT1080 tumor ([3]; after 24 h post injection): 59% | WT-HT1080 to muscle ratio ([3]; over the imaging period): close to one | time to plateau of fluorescence in hFAP-HT1080 tumor ([3]; post injection): ~ 10 min
Structure (SMILES): CN(CCCN1CCN(C(=O)[C@H](CCCCNC(=O)CC[C@H](C(=O)O)N2CCN(CC(=O)O)CCN(CC(=O)O)CC2)NC(=O)CCOCCOCCOCCOCCNC(=O)CCCCCC2(C)C(/C=C/C=C/C=C3/N(CCCS(=O)(=O)O)c4ccc(S(=O)(=O)O)cc4C3(C)C)=[N+](CCCS(=O)(=O)O)c3ccc(S(=O)(=O)[O-])cc32)CC1)c1ccc2nccc(C(=O)NCC(=O)N3CC(F)(F)C[C@H]3C#N)c2c1 (stereo partly drawn) [NODAGA-FAP647]
binding or uptake in WT-HT1080 cells (WT-HT1080 cells): did not show any binding or uptake
